# Data reported in patent US20260262643A1, “HERBICIDAL BENZOXAZINES” (FMC CORPORATION, priority 2022, published 2026).
# Assays:
# oat, wild [1] = experiment: Test C preemergence; format: in vivo, Avena fatua; details: 0 to 100 scale (0 no effect, 100 complete control); for Plant response rating, Oat, Wild: Preemergence, 500 g ai/ha, visual rating after 10 days; for Oat, Wild plant response rating: Test C, preemergence, 125 g ai/ha
# Summary of the method: (§1)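 Visual injury score, 0–100 (100 = complete control), taken 10 days after treatment relative to untreated controls. Pre: directed spray onto soil over sown seeds. Post: foliar spray at one- to two-leaf stage, 2–10 cm. Solvent/surfactant formulation; loam–sand soil; greenhouse.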
# pigweed, palmer [2] = experiment: Test C preemergence; format: in vivo, Amaranthus palmeri; details: 0 to 100 scale (0 no effect, 100 complete control); for Plant response rating, Pigweed, Palmer: Preemergence, 500 g ai/ha, visual rating after 10 days; for Pigweed, Palmer plant response rating: Test C, preemergence, 125 g ai/ha
# Summary of the method: as §1
# pigweed, palmer [3] = experiment: Test C postemergence; format: in vivo, Amaranthus palmeri; details: 10 days
# Summary of the method: as §1
# kochia [4] = experiment: Test C postemergence; format: in vivo, Bassia scoparia; details: 10 days
# Summary of the method: as §1
# green foxtail [5] = experiment: Test C postemergence; format: in vivo, Setaria viridis; details: 10 days
# Summary of the method: as §1
# barnyardgrass [6] = experiment: Test C preemergence; format: in vivo, Echinochloa crusgalli; details: 0 to 100 scale (0 no effect, 100 complete control); for Barnyardgrass plant response rating: 125 g ai/ha, preemergence; for Plant response rating, Barnyardgrass: Preemergence, 500 g ai/ha, visual rating after 10 days
# Summary of the method: as §1
# wheat [7] = experiment: Test C preemergence; format: in vivo, Triticum aestivum; details: 0 to 100 scale (0 no effect, 100 complete control); for Plant response rating, Wheat: Preemergence, 500 g ai/ha, visual rating after 10 days; for Wheat plant response rating: Test C, preemergence, 125 g ai/ha
# Summary of the method: as §1
# barnyardgrass [8] = experiment: Test D flooded paddy test; format: in vivo, Echinochloa crus-galli; details: 250 g ai/ha, applied to paddy water, visual rating after 13 to 14 days, scale 0 to 100 (0 no effect, 100 complete control)
# Summary of the method: (§2)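 Compounds go straight into paddy water over 2-leaf plants in pots flooded to 3 cm. Greenhouse holding lasts 13 to 14 days. Injury is scored by eye against controls from 0 (none) to 100 (complete control).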
# sedge, umbrella = experiment: Test D flooded paddy test; format: in vivo, Cyperus difformis; details: 250 g ai/ha, applied to paddy water, visual rating after 13 to 14 days, scale 0 to 100 (0 no effect, 100 complete control)
# Summary of the method: as §2
# rice = experiment: Test D flooded paddy test; format: in vivo, Oryza sativa; details: 250 g ai/ha, applied to paddy water, visual rating after 13 to 14 days, scale 0 to 100 (0 no effect, 100 complete control)
# Summary of the method: as §2
# ryegrass, Italian [9] = experiment: Test C preemergence; format: in vivo, Lolium multiflorum; details: 0 to 100 scale (0 no effect, 100 complete control); for Plant response rating, Ryegrass, Italian: Preemergence, 500 g ai/ha, visual rating after 10 days; for Ryegrass, Italian plant response rating: Test C, preemergence, 125 g ai/ha
# Summary of the method: as §1
# soybean [10] = experiment: Test C preemergence; format: in vivo, Glycine max; details: 0 to 100 scale (0 no effect, 100 complete control); for Plant response rating, Soybean: Preemergence, 500 g ai/ha, visual rating after 10 days; for Soybean plant response rating: Test C, preemergence, 125 g ai/ha
# Summary of the method: as §1
# green foxtail [11] = experiment: Test C preemergence; format: in vivo, Setaria viridis; details: 0 to 100 scale (0 no effect, 100 complete control); for Plant response rating, Foxtail, Green: Preemergence, 500 g ai/ha, visual rating after 10 days; for Foxtail, Green plant response rating: Test C, preemergence, 125 g ai/ha
# Summary of the method: as §1
# kochia [12] = experiment: Test C preemergence; format: in vivo, Bassia scoparia; details: 0 to 100 scale (0 no effect, 100 complete control); for Plant response rating, Kochia: Preemergence, 500 g ai/ha, visual rating after 10 days; for Kochia plant response rating: Test C, preemergence, 125 g ai/ha
# Summary of the method: as §1
# ducksalad = experiment: Test D flooded paddy test; format: in vivo, Heteranthera limosa; details: 250 g ai/ha, applied to paddy water, visual rating after 13 to 14 days, scale 0 to 100 (0 no effect, 100 complete control)
# Summary of the method: as §2
# ragweed [13] = experiment: Test C preemergence; format: in vivo, Ambrosia artemisiifolia; details: 0 to 100 scale (0 no effect, 100 complete control); for Plant response rating, Ragweed: Preemergence, 500 g ai/ha, visual rating after 10 days; for Ragweed plant response rating: Test C, preemergence, 125 g ai/ha
# Summary of the method: as §1
# barnyardgrass [14] = experiment: Test C postemergence; format: in vivo, Echinochloa crusgalli; details: 10 days
# Summary of the method: as §1
# blackgrass [15] = experiment: Test C preemergence; format: in vivo, Alopecurus myosuroides; details: 0 to 100 scale (0 no effect, 100 complete control); for Plant response rating, Blackgrass: Preemergence, 500 g ai/ha, visual rating after 10 days; for Blackgrass plant response rating: Test C, preemergence, 125 g ai/ha
# Summary of the method: as §1
# horseweed = experiment: Test C postemergence; format: in vivo, Erigeron canadensis; details: 10 days
# Summary of the method: as §1
# ryegrass, Italian [16] = experiment: Test C postemergence; format: in vivo, Lolium multiflorum; details: 10 days
# Summary of the method: as §1
# ragweed [17] = experiment: Test C postemergence; format: in vivo, Ambrosia artemisiifolia; details: 10 days
# Summary of the method: as §1
# soybean [18] = experiment: Test C postemergence; format: in vivo, Glycine max; details: 10 days
# Summary of the method: as §1
# oat, wild [19] = experiment: Test C postemergence; format: in vivo, Avena fatua; details: 10 days
# Summary of the method: as §1
# blackgrass [20] = experiment: Test C postemergence; format: in vivo, Alopecurus myosuroides; details: 10 days
# Summary of the method: as §1
# wheat [21] = experiment: Test C postemergence; format: in vivo, Triticum aestivum; details: 10 days
# Summary of the method: as §1
# corn [22] = experiment: Test C preemergence; format: in vivo, Zea mays; details: 0 to 100 scale (0 no effect, 100 complete control); for Plant response rating, Corn: Preemergence, 500 g ai/ha, visual rating after 10 days; for Corn plant response rating: Test C, preemergence, 125 g ai/ha
# Summary of the method: as §1
# corn [23] = experiment: Test C postemergence; format: in vivo, Zea mays; details: 10 days
# Summary of the method: as §1
# galium = experiment: Test C postemergence; format: in vivo, Galium aparine; details: 10 days
# Summary of the method: as §1
# [24] = 125 g ai/ha, postemergence, 0 to 100 scale, 0 no effect, 100 complete control
# [25] = Postemergence, 500 g ai/ha, visual 0 to 100 scale (0 no effect, 100 complete control)
smiles,measurement,setting,value
CC(C)c1ncn(-c2cc(OC(F)F)c(OC(F)F)c(C(=O)N3C[C@H](C)Oc4c(Cl)cccc43)c2)n1 [Compound 150],"Plant response rating, Oat, Wild","oat, wild [1]",0
same,"Oat, Wild plant response rating","oat, wild [1]",0
same,"Plant response rating, Pigweed, Palmer","pigweed, palmer [2]",0
same,"Pigweed, Palmer plant response rating","pigweed, palmer [2]",0
same,"Plant response rating, Pigweed, Palmer","pigweed, palmer [3]; [24]",0
same,"Plant response rating, Pigweed, Palmer","pigweed, palmer [3]; [25]",30
same,"Plant response rating, Kochia",kochia [4]; [24],0
same,"Plant response rating, Kochia",kochia [4]; [25],20
same,"Plant response rating, Foxtail, Green",green foxtail [5]; [24],0
same,"Plant response rating, Foxtail, Green",green foxtail [5]; [25],0
same,Barnyardgrass plant response rating,barnyardgrass [6],0
same,"Plant response rating, Barnyardgrass",barnyardgrass [6],0
same,"Plant response rating, Wheat",wheat [7],0
same,Wheat plant response rating,wheat [7],0
same,"Plant response rating, Barnyardgrass (Flood)",barnyardgrass [8],0
same,"Plant response rating, Sedge, Umbrella (Flood)","sedge, umbrella",0
same,"Plant response rating, Rice (Flood)",rice,0
same,"Plant response rating, Ryegrass, Italian","ryegrass, Italian [9]",0
same,"Ryegrass, Italian plant response rating","ryegrass, Italian [9]",0
same,"Plant response rating, Soybean",soybean [10],0
same,Soybean plant response rating,soybean [10],0
same,"Plant response rating, Foxtail, Green",green foxtail [11],0
same,"Foxtail, Green plant response rating",green foxtail [11],0
same,"Plant response rating, Kochia",kochia [12],0
same,Kochia plant response rating,kochia [12],0
same,"Plant response rating, Ducksalad (Flood)",ducksalad,0
same,"Plant response rating, Ragweed",ragweed [13],20
same,Ragweed plant response rating,ragweed [13],0
same,"Plant response rating, Barnyardgrass",barnyardgrass [14]; [24],10
same,"Plant response rating, Barnyardgrass",barnyardgrass [14]; [25],10
same,"Plant response rating, Blackgrass",blackgrass [15],0
same,Blackgrass plant response rating,blackgrass [15],0
same,"Plant response rating, Horseweed",horseweed; [24],0
same,"Plant response rating, Horseweed",horseweed; [25],0
same,"Plant response rating, Ryegrass, Italian","ryegrass, Italian [16]; [24]",0
same,"Plant response rating, Ryegrass, Italian","ryegrass, Italian [16]; [25]",0
same,"Plant response rating, Ragweed",ragweed [17]; [24],0
same,"Plant response rating, Ragweed",ragweed [17]; [25],0
same,"Plant response rating, Soybean",soybean [18]; [24],20
same,"Plant response rating, Soybean",soybean [18]; [25],50
same,"Plant response rating, Oat, Wild","oat, wild [19]; [24]",0
same,"Plant response rating, Oat, Wild","oat, wild [19]; [25]",0
same,"Plant response rating, Blackgrass",blackgrass [20]; [24],0
same,"Plant response rating, Blackgrass",blackgrass [20]; [25],0
same,"Plant response rating, Wheat",wheat [21]; [24],0
same,"Plant response rating, Wheat",wheat [21]; [25],0
same,"Plant response rating, Corn",corn [22],0
same,Corn plant response rating,corn [22],0
same,"Plant response rating, Corn",corn [23]; [24],0
same,"Plant response rating, Corn",corn [23]; [25],0
same,"Plant response rating, Galium",galium; [24],0
same,"Plant response rating, Galium",galium; [25],0
Cc1c(F)cc(-n2cnc(C(C)C)n2)cc1C(=O)N1C[C@H](C)Oc2c(Cl)cccc21 [Compound 151],"Plant response rating, Oat, Wild","oat, wild [1]",90
same,"Oat, Wild plant response rating","oat, wild [1]",30
same,"Plant response rating, Pigweed, Palmer","pigweed, palmer [2]",100
same,"Pigweed, Palmer plant response rating","pigweed, palmer [2]",100
same,"Plant response rating, Pigweed, Palmer","pigweed, palmer [3]; [24]",90
same,"Plant response rating, Pigweed, Palmer","pigweed, palmer [3]; [25]",100
same,"Plant response rating, Kochia",kochia [4]; [24],90
same,"Plant response rating, Kochia",kochia [4]; [25],100
same,"Plant response rating, Foxtail, Green",green foxtail [5]; [24],80
same,"Plant response rating, Foxtail, Green",green foxtail [5]; [25],90
same,Barnyardgrass plant response rating,barnyardgrass [6],90
same,"Plant response rating, Barnyardgrass",barnyardgrass [6],100
same,"Plant response rating, Wheat",wheat [7],80
same,Wheat plant response rating,wheat [7],80
same,"Plant response rating, Barnyardgrass (Flood)",barnyardgrass [8],40
same,"Plant response rating, Sedge, Umbrella (Flood)","sedge, umbrella",75
same,"Plant response rating, Rice (Flood)",rice,45
same,"Plant response rating, Ryegrass, Italian","ryegrass, Italian [9]",90
same,"Ryegrass, Italian plant response rating","ryegrass, Italian [9]",80
same,"Plant response rating, Soybean",soybean [10],90
same,Soybean plant response rating,soybean [10],50
same,"Plant response rating, Foxtail, Green",green foxtail [11],100
same,"Foxtail, Green plant response rating",green foxtail [11],100
same,"Plant response rating, Kochia",kochia [12],100
same,Kochia plant response rating,kochia [12],100
same,"Plant response rating, Ducksalad (Flood)",ducksalad,50
same,"Plant response rating, Ragweed",ragweed [13],80
same,Ragweed plant response rating,ragweed [13],30
same,"Plant response rating, Barnyardgrass",barnyardgrass [14]; [24],70
same,"Plant response rating, Barnyardgrass",barnyardgrass [14]; [25],100
same,"Plant response rating, Blackgrass",blackgrass [15],90
same,Blackgrass plant response rating,blackgrass [15],50
same,"Plant response rating, Horseweed",horseweed; [24],40
same,"Plant response rating, Horseweed",horseweed; [25],80
same,"Plant response rating, Ryegrass, Italian","ryegrass, Italian [16]; [24]",60
same,"Plant response rating, Ryegrass, Italian","ryegrass, Italian [16]; [25]",80
same,"Plant response rating, Ragweed",ragweed [17]; [24],70
same,"Plant response rating, Ragweed",ragweed [17]; [25],90
same,"Plant response rating, Soybean",soybean [18]; [24],100
same,"Plant response rating, Soybean",soybean [18]; [25],100
same,"Plant response rating, Oat, Wild","oat, wild [19]; [24]",20
same,"Plant response rating, Oat, Wild","oat, wild [19]; [25]",50
same,"Plant response rating, Blackgrass",blackgrass [20]; [24],80
same,"Plant response rating, Blackgrass",blackgrass [20]; [25],80
same,"Plant response rating, Wheat",wheat [21]; [24],20
same,"Plant response rating, Wheat",wheat [21]; [25],30
same,"Plant response rating, Corn",corn [22],50
same,Corn plant response rating,corn [22],20
same,"Plant response rating, Corn",corn [23]; [24],60
same,"Plant response rating, Corn",corn [23]; [25],90
same,"Plant response rating, Galium",galium; [24],100
same,"Plant response rating, Galium",galium; [25],100
